Measured values from publication PMC8333062, “Chemical tools for epichaperome-mediated interactome dysfunctions of the central nervous system” (Nature Communications, 2021).

Tests used:
[1] = LC-MS/MS profile of brain and tumor extracts; conditions: 1 h post-intravenous injection
97 kinases = target: T1, 97 kinases (Homo sapiens, UniProt Q96GD4); experiment: scanEDGE off-target screen; type: binding; conditions: read-out: %Ctrl AURKB
T1 construct: purchased Ambit Biosciences (scanEDGE / KINOMEscan) scanEDGE 97 kinase panel; host or cells: T7 phage in E. coli BL21-derived host; remaining kinases in HEK-293 cells
T1 sequence (Q96GD4 whole entry): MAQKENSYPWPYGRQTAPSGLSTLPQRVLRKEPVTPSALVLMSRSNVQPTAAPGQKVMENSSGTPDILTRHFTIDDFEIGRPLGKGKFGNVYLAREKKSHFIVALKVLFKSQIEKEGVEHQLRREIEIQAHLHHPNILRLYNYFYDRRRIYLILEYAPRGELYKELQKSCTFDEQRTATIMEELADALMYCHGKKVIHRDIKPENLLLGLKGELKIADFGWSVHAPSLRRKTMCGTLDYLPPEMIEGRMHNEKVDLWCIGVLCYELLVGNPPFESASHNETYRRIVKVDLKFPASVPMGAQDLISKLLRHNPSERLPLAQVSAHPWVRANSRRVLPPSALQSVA

In the case of `CC(C)(C)CNCCn1c(Sc2cc3c(cc2I)OCO3)nc2c(N)ncnc21` [Compound 85], the “species detected in lesions and brain” value [1] is reported as “only the intact PU-HZ151 molecule” and the remaining binding at 10 µM (97 kinases) is reported as 73%.
